Tested on: rat carrageenan-induced paw edema model
Test: Mechanical hyperalgesia (Randall-Selitto pain threshold) in rat carrageenan-induced paw edema model
Type: in vivo
Conditions: for Pain threshold (mmHg) 2 hour: 2 hours after carrageenan inflammation, control 31.6 ± 1.4
Procedure: On the day before the administration of the phlogistic agent, the pain threshold of each individual by the Randall-Selitto method was measured using an Analgesy meter.
On the day before the use of the phlogistic agent, a required amount of carrageenan (Tokyo Chemical Industry Co., Ltd.) was weighed, ground using an agate mortar and pestle, and suspended while adding physiological saline little by little, thereby preparing a 1 w/v % carrageenan physiological saline solution. After preparation, the solution was stored in a refrigerator and used the next day.
The test substance was intravenously administered, and after 5 minutes, 0.1 mL of a phlogistic agent (1 w/v % carrageenan physiological saline solution) was subcutaneously administered to the right hind paw of the animal to induce inflammation.
2, 3, 4, and 5 hours after inflammation, the pain threshold was measured by the Randall-Selitto method using an Analgesy meter.
Dunnett's multiple comparison test was performed between the control group and the test substance group at each measurement time point.

Which “Pain threshold (mmHg) 2 hour” value (1 mg/kg i.v., mean ± SE, N=7) does the source give for `CC[C@@]1(C)Oc2cc(ccc2O)C[C@H](N(C)C)C(=O)N[C@@H](C(C)C)C(=O)N[C@@H]1C(=O)N[C@@H](CCC(=O)O)C(=O)O` [Compound 23] here?
The value was 31.6 ± 2.2 mmHg.

And the “Pain threshold (mmHg) 4 hour” value (1 mg/kg i.v., 4 hours after carrageenan inflammation, mean ± SE, N=7, control 30.3 ± 0.7)?
Its value is 34.0 ± 1.3 mmHg.

What about the “Pain threshold (mmHg) 5 hour” value (1 mg/kg i.v., 5 hours after carrageenan inflammation, mean ± SE, N=7, control 28.3 ± 1.9) of the same compound?
Its value is 30.1 ± 1.0 mmHg.

And the “Pain threshold (mmHg) 2 hour” value (5 mg/kg i.v., mean ± SE, N=7)?
The value was 34.9 ± 1.7 mmHg.

What about the “Pain threshold (mmHg) 2 hour” value (25 mg/kg i.v., mean ± SE, N=7) of the same compound?
The value was 36.7 ± 2.4 mmHg.

What about the “Effect on inflammatory pain (pain threshold by the Randall-Selitto method)” value (rat carrageenan-induced paw edema model, i.v. 1-25 mg/kg, overall conclusion) of the same compound?
Its value is “suppressing effect on inflammatory pain”.
